We go through 8 molecules from PubChem BioAssay (NCI).

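Dose response: 5 concentrations. Exposure: 48 h. Format: 96-well plates. Endpoint: linear interpolation; highest concentration if not reached. GI50: concentration for 50% inhibition of growth. TGI denotes the concentration required for complete inhibition of growth.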 A value given as a limit tells only on which side of the number the result lay.

What all share (test): DTP human tumour cell line panel, 48 h
In assay [1] the test system is UO-31 renal.
Assay [2] has as its system T-47D breast.
Assay [3] has as its system OVCAR-4 ovarian.
Assay [4] concerns HT29 colon.
Assay [5] relates to UACC-257 melanoma.
Assay [6] deals with M14 melanoma.
Assay [7] deals with SNB-75 CNS.
The test system of assay [8] is SNB-19 CNS.
In assay [9] the test system is A549 NSCLC.
Assay [10] deals with NCI-H226 lung.

For the molecule `CCCCCn1c(C)cc(/C=C\c2ccc3cc(C)ccc3[n+]2C)c1C`, the GI50 was 0.212 µM in assay [1]; 0.0299 µM in assay [2]; 0.0683 µM in [3]; 0.0645 µM in [4]; 0.367 µM in [5]; 0.253 µM in assay [6]. Further, the values for the GI50 in assay [7], in assay [8] and in assay [9] were 0.0791 µM, 0.123 µM and 0.0557 µM, respectively. For the same molecule, the TGI in [1] amounted to 0.502 µM; in assay [2], 0.751 µM; in assay [3], 1.51 µM; in assay [4], 1.19 µM; in assay [5], 1.45 µM; in assay [6], 1.38 µM. The values for the TGI in assay [7], in assay [8] and in assay [9] were 0.975 µM, 1.51 µM and 0.97 µM, respectively.

Regarding `CS(=O)(=O)N(c1cc(-c2ccc3ncnc(Nc4cccc(Cl)c4)c3c2)cnc1Cl)S(C)(=O)=O`, the GI50 is 0.232 µM in [1]; 0.043 µM in assay [2]; 1.04 µM in assay [3]; 0.364 µM in assay [4]; 0.598 µM in [6]; 1.04 µM in assay [10]. Also, the results for the GI50 in [7], in assay [8] and in assay [9] were 0.0406 µM, 0.936 µM and 1.03 µM, respectively. In addition, the TGI in [1] came out at 2.52 µM; in assay [2] it was 0.618 µM; in assay [3], 10.4 µM; in [4], 58.8 µM; in assay [6] it was 4.4 µM; in assay [10], 9.75 µM. The TGI stood at 0.641 µM in assay [7], 7.89 µM in assay [8] and 4.24 µM in assay [9].

As to `CC1(C)C(=O)/C(=C\c2cccnc2)C[C@]2(C)[C@H]3CC[C@@H]4[C@@H](C(=O)/C=C/c5ccncc5)CC[C@@]4(C)[C@]3(C)CC[C@@H]12`, the GI50 in assay [1] was 1.67 µM; in assay [2], 1.6 µM; in assay [3] it was 2.55 µM; in assay [4], 2.41 µM; in assay [5], 1.8 µM; in [6], 1.89 µM. Moreover, the GI50 in assay [10] is 2.34 µM; in [8], 1.66 µM; in assay [9], 2.62 µM. Moreover, the TGI came out at 3.04 µM in assay [1]; 9.54 µM in assay [2]; 9.89 µM in assay [3]; 8.64 µM in assay [4]; 4.44 µM in assay [5]; 4.93 µM in assay [6]. The TGI was 5.78 µM in [10], 3.22 µM in [8] and 10.7 µM in assay [9].

Take `Cc1ccc([C@]2(C)CC[C@H](C)/C2=C\Br)c(O)c1`: the GI50 in assay [1] is 6.37 µM; in assay [2], 6.45 µM; in [3] it was 3.42 µM; in [4], 2.52 µM; in [5], 9.22 µM; in [6] it was 3.51 µM. The values for the GI50 in [8] and in [9] were 4.6 µM and 5.85 µM, respectively. For the same molecule, the TGI is 20.3 µM in [1]; 27.9 µM in assay [2]; 14 µM in assay [3]; 6.65 µM in assay [4]; 22 µM in assay [5]; 13.3 µM in assay [6]. Also, the values for the TGI in assay [8] and in assay [9] were 18.9 µM and 19 µM, respectively.

Take `CCN(CC)c1ccc(/C=C/C=C2\NC(=O)NC2=O)cc1`: the GI50 in [1] was 7.97 µM; in [2], 4 µM; in [3] it was 9.01 µM; in assay [4], 1.82 µM; in assay [6], 1.56 µM; in [10] it was 15 µM. In addition, the results for the GI50 in [7], in assay [8] and in assay [9] were 2.67 µM, 16.1 µM and 3.69 µM, respectively. Further, the TGI in assay [1] was above 100 µM; in assay [2], above 100 µM; in assay [3], above 100 µM; in [4], 9.25 µM; in assay [6], above 100 µM; in [10] it was above 100 µM. In addition, the TGI was 79.5 µM in assay [7], above 100 µM in [8] and 32.7 µM in assay [9].

Consider `Oc1c(CN2CCN(c3ccccc3)CC2)cc(Br)c2cccnc12`, for which the TGI in [1] was above 30.5 µM; in assay [2], above 47.3 µM; in [3] it was above 100 µM; in assay [4], above 95.8 µM; in assay [5], above 100 µM; in assay [6], above 42 µM. The TGI is 18.1 µM in [7], above 100 µM in assay [8] and above 100 µM in assay [9].

As to `O=C(CCc1ccc(O)cc1)N/N=C/c1cc(Br)ccc1O`, the GI50 in [1] is 1.34 µM; in assay [2] it was 3.74 µM; in assay [3], 3.19 µM; in assay [4], 23.7 µM; in assay [5] it was 2.62 µM; in assay [6] it was 2.75 µM. The results for the GI50 in assay [7], in [8] and in assay [9] were 5.25 µM, 6.51 µM and 4.03 µM, respectively. Also, the TGI in [1] came out at 7.19 µM; in [2], 41.6 µM; in [3] it was 82 µM; in assay [4], 99.4 µM; in assay [5], 11.4 µM; in assay [6], 17.4 µM. Moreover, the TGI in assay [7], in assay [8] and in assay [9] was above 100 µM in each case.

As for `NC(=S)NN=C1CSSC1`, the GI50 in assay [1] was 1.83 µM; in [2] it was 4.31 µM; in [3], 4.32 µM; in assay [4], 2.31 µM; in assay [5], 1.93 µM; in [6], 1.92 µM. Further, the GI50 is 1.66 µM in assay [10], 2.46 µM in assay [8] and 2.26 µM in [9]. Also, the TGI amounted to 20.1 µM in assay [1]; 29.1 µM in assay [2]; 38.7 µM in assay [3]; 8 µM in assay [4]; 17.8 µM in [5]; 7.79 µM in assay [6]. For the same molecule, the TGI in [10] came to 14.5 µM; in assay [8], 11.4 µM; in assay [9] it was 12.1 µM.

As a reminder, the GI50 is the concentration giving 50% growth inhibition. As usually defined, the TGI is the concentration giving total growth inhibition. Lower therefore signals more potent growth arrest.
